Patent US10639287B2, “Compounds for the treatment of mitochondrial diseases” (UNIVERSITE PARIS-SUD, priority 2014, dated 2020)

Legend:
[1] = system: neuronal cybrids derived from a MELAS patient (m.3243A>G tRNA^Leu mutation); assay: Lactate production of MELAS neuronal cybrids; assay type: cell-based, human; conditions: 300 nM, 48 hours
Procedure: The increase in the lactate production is the result of a toxicity of the drug used, but also of a mitochondrial dysfunction (energy deficiency) present in MELAS syndrome.
Neuronal cybrid lines carrying the MELAS mutation and the parental control line were grown in sterile culture flasks and incubated at 37° C. with 5% CO2 in a medium composed of DMEM with 1.5 g/L glucose, 2 mM L-glutamine and supplemented with 10% foetal bovine serum as well as uridine (5 μg/ml) and pyruvate (10 μg/mL). The cells were harvested by trypsinisation in exponential phase and were used for subsequent biochemical or molecular mitochondrial analyses.
The MELAS neuronal cybrid line carrying the mutation seemingly in the homoplasmic state (i.e. reaching almost 100% MELAS mutation) and the SHSY-5Y parental control line were used for measurements of enzyme activities. […] These cell pellets were then analysed by spectrophotometry with measurement of the different mitochondrial biochemical activities, particularly the activity of citrate synthase and the activity of complex I of the respiratory chain. […]
The lactate concentration of the culture medium for neuronal cybrid and parental cells was determined by spectrophotometry using an enzymatic kit (Bohringer) on a Hitachi-Roche apparatus (Roche Diagnostics GmbH). […]

[2] = system: homozygous TB2143 nematodes (polg-1(ok1548Δ/Δ)); assay: Amount of mtDNA of homozygous nematodes depleted of mtDNA; assay type: in vivo, Caenorhabditis elegans
Procedure: Ten homozygous or wild-type TB2143 larvae (polg-1(ok1548Δ/Δ)) at stage L4 were deposited on each NGM dish containing either DMSO or 50 μM clofilium tosylate (three dishes for each treatment group). They were incubated at 20° C. until the 6th day of adulthood. Extraction of the total nematode DNAs was performed with the Nucleospin Kit Tissue kit (Macherey Nagel). The quantifications of mtDNA and nuclear DNA were performed as described in Addo et al., 2010 (Addo, M. G., Cossard, R., Pichard, D., Obiri-Danso, K., Rötig, A. and Delahodde, A. (2010) Caenorhabditis elegans, a pluricellular model organism to screen new genes involved in mitochondrial genome maintenance. BBA-Mol. Basis Dis., 1802, 765-773).

MIP1 yeast mutants = assay: Fidelity of Mip1 polymerase: frequency of cells resistant to erythromycin (Ery^R); assay type: cell-based, Saccharomyces cerevisiae; conditions: 32 μM vs DMSO
From the text: A disruption of the fidelity of the Mip1 mitochondrial polymerase can be evaluated by measuring the frequency of cells resistant to erythromycin (Ery^R). The Ery^R mutations are caused by mutations in the 21S mitochondrial ribosomal RNA encoded by mtDNA that may occur after incorporation of a bad nucleotide (Baruffini, E., Lodi, T., Dallabona, C., Puglisi, A., Zeviani, M. and Ferrero, I. (2006) Genetic and Chemical rescue of the Saccharomyces cerevisiae phenotype induced by mitochondrial DNA polymerase mutations associated with progressive external ophthalmoplegia in humans. Hum. Mol. Genet., 15, 2846-2855). Measuring the resistance to erythromycin is one way to directly measure the point mutations of mtDNA.
Independent colonies were seeded in 10 mL of minimal medium (SC-TRP, 2% glucose) in the presence of 32 μM clofilium tosylate or DMSO to stationary phase. […] The mutation frequency was calculated as the number of Ery^R colonies among the total number of colonies (Baruffini, E., Lodi, T., Dallabona, C., Puglisi, A., Zeviani, M. and Ferrero, I. (2006) Genetic and Chemical rescue of the Saccharomyces cerevisiae phenotype induced by mitochondrial DNA polymerase mutations associated with progressive external ophthalmoplegia in humans. Hum. Mol. Genet., 15, 2846-2855).

SMILES: CCCCCCC[N+](CC)(CC)CCCCc1ccc(Cl)cc1.Cc1ccc(S(=O)(=O)[O-])cc1 [clofilium tosylate]
- production of lactate [1]: without increasing
- amount of mtDNA of homozygous TB2143 nematodes ([2]; 50 μM vs DMSO): Clofilium tosylate increased the amount of mtDNA of homozygous TB2143 nematodes (polg-1(ok1548Δ/Δ)) depleted of mtDNA.
- mtDNA/nuDNA ([2]; polg-1(ok1548Δ/Δ), 50 μM, 6th day of adulthood): 69.2
- fidelity of the different MIP1 yeast mutants (Ery^R frequency) (MIP1 yeast mutants): no effect
